Test results: PMC11470957, “Principles of paralog-specific targeted protein degradation engaging the C-degron E3 KLHDC2” (Nature Communications, 2024)
Where “and” joins values, the source holds several entries; their conditions need not be identical. Equal entries are not always repeated. Entries after “also recorded” stand apart in the source; their conditions may differ.

Legend:
[1] = system: U2OS KLHDC2 KO/rescue and KO cells (proteome); assay: TMT-based total proteomics of dosed U2OS cells; conditions: 1 μM, 24 h
[2] = system: SKBR3, AU565, RD, SKES1, A673 cells; assay: Cell Titer-Glo Luminescent Cell Viability assay; conditions: 24 h, read-out: IC50, cell viability
[3] = Measurement of SJ46421 cellular concentration by LC-MS/MS; assay type: in vitro ADME; conditions: SKBR3, from LC-MS-MS of lysates
[4] = target: neddylated CRL2^KLHDC2 (Homo sapiens, UniProt Q9Y2U9, G405K/S406K); assay: biochemical
[5] = target: BRD3^BD2 (Homo sapiens, UniProt Q15059); assay: ITC, binary binding to BRD3^BD2
BRD3^BD2, sequence (Q15059 306-416): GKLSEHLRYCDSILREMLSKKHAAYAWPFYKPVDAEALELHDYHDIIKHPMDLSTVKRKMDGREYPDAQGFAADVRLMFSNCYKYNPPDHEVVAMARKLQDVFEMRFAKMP

[6] = target: BRD4^BD2 (Homo sapiens, UniProt O60885); assay: ITC, binary binding to BRD4^BD2
[7] = target: T1, R56A KLHDC2^SBD (Homo sapiens, UniProt Q9Y2U9, R56A); assay: ITC, binary binding to R56A KLHDC2^SBD
T1 sequence (Q9Y2U9 15-361 R56A): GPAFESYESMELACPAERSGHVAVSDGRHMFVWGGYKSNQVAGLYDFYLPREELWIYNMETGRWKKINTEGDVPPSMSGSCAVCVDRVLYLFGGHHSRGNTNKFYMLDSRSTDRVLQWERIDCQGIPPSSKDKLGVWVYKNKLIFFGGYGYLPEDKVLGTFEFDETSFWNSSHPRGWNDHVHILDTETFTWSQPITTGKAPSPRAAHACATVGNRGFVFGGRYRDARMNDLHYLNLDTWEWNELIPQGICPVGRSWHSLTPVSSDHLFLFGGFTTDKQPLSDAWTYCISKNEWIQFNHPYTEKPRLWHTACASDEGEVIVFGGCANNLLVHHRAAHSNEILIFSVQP

[8] = target: KLHDC2^SBD / BRD3^BD2 (Homo sapiens, UniProt Q15059+Q9Y2U9); assay: ITC, ternary complex KLHDC2^SBD with PROTAC-BRD3^BD2
KLHDC2^SBD / BRD3^BD2, sequence (Q9Y2U9 15-361): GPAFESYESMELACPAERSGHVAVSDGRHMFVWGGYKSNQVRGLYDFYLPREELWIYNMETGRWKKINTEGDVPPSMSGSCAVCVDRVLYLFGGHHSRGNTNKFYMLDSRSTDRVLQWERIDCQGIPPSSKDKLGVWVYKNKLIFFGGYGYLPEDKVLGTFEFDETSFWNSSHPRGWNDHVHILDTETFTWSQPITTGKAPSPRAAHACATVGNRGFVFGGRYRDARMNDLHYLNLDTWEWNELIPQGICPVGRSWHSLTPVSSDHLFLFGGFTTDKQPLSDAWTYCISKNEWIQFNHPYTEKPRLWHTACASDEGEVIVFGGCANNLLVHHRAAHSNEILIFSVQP
KLHDC2^SBD / BRD3^BD2, sequence (Q15059 306-416): as the sequence (Q15059 306-416) above

[9] = target: R56A KLHDC2^SBD / BRD3^BD2 (Homo sapiens, UniProt Q15059+Q9Y2U9, R56A); assay: ITC, ternary complex R56A KLHDC2^SBD with PROTAC-BRD3^BD2
R56A KLHDC2^SBD / BRD3^BD2, sequence (Q15059 306-416, one chain of several): as the sequence (Q15059 306-416) above

[10] = target: K291A KLHDC2^SBD / BRD3^BD2 (Homo sapiens, UniProt Q15059+Q9Y2U9, K291A); assay: ITC, ternary complex K291A KLHDC2^SBD with PROTAC-BRD3^BD2
K291A KLHDC2^SBD / BRD3^BD2, sequence (Q9Y2U9 15-361 K291A): as the sequence (Q9Y2U9 15-361) above, with K277A counted along it
K291A KLHDC2^SBD / BRD3^BD2, sequence (Q15059 306-416): as the sequence (Q15059 306-416) above

[11] = target: R56A KLHDC2^SBD / G386E BRD4^BD2 (Homo sapiens, UniProt O60885+Q9Y2U9, G386E/R56A); assay: ITC, ternary complex R56A KLHDC2^SBD with PROTAC-G386E BRD4^BD2
[12] = target: H346A/R347A KLHDC2^SBD / BRD3^BD2 (Homo sapiens, UniProt Q15059+Q9Y2U9, H346A/R347A); assay: ITC, ternary complex H346A/R347A KLHDC2^SBD with PROTAC-BRD3^BD2
H346A/R347A KLHDC2^SBD / BRD3^BD2, sequence (Q9Y2U9 15-361 H346A/R347A): as the sequence (Q9Y2U9 15-361) above, with H332A, R333A counted along it
H346A/R347A KLHDC2^SBD / BRD3^BD2, sequence (Q15059 306-416, stated change not applied): as the sequence (Q15059 306-416) above

[13] = system: CUL2^KLHDC2, CUL2^KLHDC3, CUL2^KLHDC10, CUL5^KLHDC1; assay: SJ46421-dependent BRD^BD2 ubiquitylation by KLHDC-family CRLs (E3 selectivity); conditions: Figs 5a, S5a
[14] = cell: SJ46421, syringe: BRD3^BD2
[15] = ITC, syringe BRD4BD2, cell compound, Rep1, Rep2
[16] = cell: SJ46421, syringe: BRD4^BD2
[17] = cell: SJ46421, syringe: R56A KLHDC2^SBD
[18] = cell: PROTAC-BRD3^BD2, syringe: KLHDC2^SBD
[19] = cell: SJ46421-BRD3^BD2, syringe: R56A KLHDC2^SBD
[20] = ITC source data Fig4f, N=1, syringe K291A KLHDC2, cell SJ46421-BRD3BD2
[21] = ITC, syringe K291A KLHDC2, cell compound-BRD3BD2, N=1
[22] = cell: SJ46421-BRD3^BD2, syringe: K291A KLHDC2^SBD, n=1
[23] = cell: SJ46421-G386E BRD4^BD2, syringe: R56A KLHDC2^SBD
[24] = ITC source data Fig4f, N=1, syringe H346A/R347A KLHDC2, cell SJ46421-BRD3BD2
[25] = ITC, syringe H346A/R347A KLHDC2, cell compound-BRD3BD2, N=1
[26] = cell: SJ46421-BRD3^BD2, syringe: H346A/R347A KLHDC2^SBD, n=1

## COC(=O)CNC(=O)Cc1csc(-c2ccc3cccc(OCCN4CCN(C(=O)C[C@@H]5N=C(c6ccc(Cl)cc6)c6c(sc(C)c6C)-n6c(C)nnc65)CC4)c3c2)n1 [SJ46420]
[1]; KO/rescue U2OS cells
  change of protein levels by TMT proteomics: BRD3 was most substantially downregulated, with lesser reductions in the levels of BRD4 and BRD2
[1]; U2OS KLHDC2 KO cells
  change of protein levels by TMT proteomics: not observed
[2]
  IC50: ~300 nM

## Cc1sc2c(c1C)C(c1ccc(Cl)cc1)=N[C@@H](CC(=O)N1CCN(CCOc3cccc4ccc(-c5nc(CC(=O)NCC(=O)O)cs5)cc34)CC1)c1nnc(C)n1-2 [SJ46421]
[3]
  cellular permeability: poor cellular permeability; also recorded: poor permeability properties
[4]
  IC50: 2600 nM
[5]; ITC Kd, cell: SJ46421, syringe: BRD3^BD2
  Kd: 1000 ± 194 nM
[5]; ITC, syringe BRD3BD2, cell compound, Rep1, Rep2
  (-)TDS: 5.34 and 5
[5]; Kd, Rep1/Rep2, ITC source data Fig4a, syringe BRD3BD2, cell SJ46421
  Kd: 1070 nM and 908 nM
[5]; [14]
  ITC -TΔS: 5.11 +/- 0.24 kcal/mol-1
  ITC N: 0.9
  ITC ΔH: -13.5 +/- 0.53 kcal/mol-1
[6]; [15]
  (-)TDS: 1.81 and 1.64
  DH: -9.89
[6]; Kd, Rep1/Rep2, ITC source data Fig4a, syringe BRD4BD2, cell SJ46421
  Kd: 1080 nM and 958 nM
[6]; [16]
  ITC -TΔS: 1.73 +/- 0.14 kcal/mol-1
  ITC N: 0.9
[7]; ITC Kd, cell: SJ46421, syringe: R56A KLHDC2^SBD
  Kd: 463 ± 15 nM
[7]; Kd, Rep1/Rep2, ITC source data Fig4f, syringe R56A KLHDC2, cell SJ46421
  Kd: 462 nM and 464 nM
[7]; [17]
  ITC -TΔS: -6.66 +/- 0.25 kcal/mol-1
  ITC N: 1.0
  ITC ΔG: -8.85 +/- 0.05 kcal/mol-1
  ITC ΔH: -1.82 +/- 0.05 kcal/mol-1
[8]; BRD3^BD2
  ΔG (binary + ternary): -19.9 kcal/mol
[8]; BRD3^BD2, KLHDC2^SBD
  cooperativity α: 16
[8]; ITC, syringe KLHDC2, cell BRD3BD2-compound (printed BRD2BD3 for SJ46421), Rep1, Rep2
  (-)TDS: 1.05
[8]; [18]
  ITC N (ternary): 0.9
  ITC ΔG (ternary): -10.8 +/- 0.01 kcal/mol-1
  ITC ΔH (ternary): -6.65 +/- 0.79 kcal/mol-1
[9]; BRD3^BD2, R56A KLHDC2^SBD
  cooperativity α: 1.7
[9]; Kd, Rep1/Rep2, ITC source data Fig4f, syringe R56A KLHDC2, cell SJ46421-BRD3BD2
  Kd: 291 nM and 255 nM
[9]; [19]
  ITC -TΔS (ternary): -5.02 +/- 0.31 kcal/mol-1
  ITC N (ternary): 1.1
  ITC ΔG (ternary): -9.19 +/- 0.03 kcal/mol-1
  ITC ΔH (ternary): -3.68 +/- 0.03 kcal/mol-1
[10]
  Kd: 25.6 nM
[10]; [20]
  (-)TDS, Rep1: -5.73
  DG, Rep1: -10.6
  DH, Rep1: -4.87
[10]; [21]
  (-)TDS: -5.73
  DG: -10.6
  DH: -4.87
[10]; K291A KLHDC2^SBD, estimated from the binding affinity of SJ46421 to WT KLHDC2
  cooperativity α: 11.9
[10]; [22]
  ITC -TΔS (ternary): -5.73 kcal/mol-1
  ITC N (ternary): 0.9
  ITC ΔG (ternary): -10.6 kcal/mol-1
  ITC ΔH (ternary): -4.87 kcal/mol-1
[11]; G386E BRD4^BD2, R56A KLHDC2^SBD
  cooperativity α: 1.4
[11]; Kd, Rep1/Rep2, ITC source data Fig4f, syringe R56A KLHDC2, cell SJ46421-G386EBRD4BD2
  Kd: 333 nM and 325 nM
[11]; [23]
  ITC -TΔS (ternary): -4.42 +/- 0.19 kcal/mol-1
  ITC N (ternary): 1.1
  ITC ΔG (ternary): -9.05 +/- 0.01 kcal/mol-1
  ITC ΔH (ternary): -4.69 +/- 0.15 kcal/mol-1
[12]
  Kd: 50.9 nM
[12]; H346A/R347A KLHDC2^SBD, estimated from the binding affinity of SJ46421 to WT KLHDC2
  cooperativity α: 6.0
[12]; [24]
  (-)TDS, Rep1: -7.83
  DG, Rep1: -10.2
  DH, Rep1: -2.36
[12]; [25]
  (-)TDS: -7.83
  DG: -10.2
  DH: -2.36
[12]; [26]
  ITC -TΔS (ternary): -7.83 kcal/mol-1
  ITC N (ternary): 0.9
  ITC ΔG (ternary): -10.2 kcal/mol-1
  ITC ΔH (ternary): -2.36 kcal/mol-1
[13]
  SJ46421-dependent ubiquitylation by KLHDC3, KLHDC10, and KLHDC1: poor
